Results reported in article PMC10072326, “Promising anticancer agents based on 8-hydroxyquinoline hydrazone copper(II) complexes” (Frontiers in Chemistry, 2023).

Tests used:
[1] = target: bovine serum albumin (BSA) (Bos taurus, UniProt P02769); test: BSA fluorescence quenching; format: binding; design: Affinity constant K ± SD: unit not given here; settings: fluorescence quenching; HypSpec2014; 1:1 species assumed
Method: To evaluate the interaction of the compounds, both organic and Cu(II) complexes, with bovine serum albumin (BSA) fluorescence spectra were measured. In a typical fluorescence experiment, to a solution of 1.5 μM of BSA in the same buffer, successive aliquots of a stock solution of each compound in DMSO were added directly to the cuvette (optical path 1.0 cm). The fluorescence emission was recorded between 310 and 600 nm with excitation at 295 nm. The final DMSO % was kept below 2% (v/v). The Stern-Volmer plots were built using the emission at 340 nm and blank samples (in the absence of BSA) with the same concentration of the complexes were recorded and subsequently subtracted from the corresponding emission spectra containing the fluorophore. Moreover, the fluorescence emission intensity was corrected for reabsorption and inner filter effects using UV-Vis absorption data recorded for each sample, since all complexes absorb in the measured wavelength range (19, 20).
The interaction of the organic compounds and Cu(II) complexes with BSA was monitored by studying the quenching of albumin’s fluorescence emission with increasing concentrations of the complexes (25). Overall, the intensity of the Trp emission decreases with the addition of the complexes, except for 8 (see Figs. S19). The Stern-Volmer relationship was used to analyse the fluorescence quenching process:
where I0 and I are the fluorescence intensities in the absence and in the presence of quencher, kq is the bimolecular quenching rate, τ0 is the fluorophore lifetime in the absence of the quencher (6.22 ns) (26) and [Q] is the quencher concentration. […] This linear relationship is obeyed for all complexes except 5, where a downward curvature is observed. This can be an indication of two distinct binding sites, corresponding to two populations of fluorophores, one being accessible and other inaccessible or buried inside the protein. In such cases, the Stern-Volmer relation can be modified to (27):
where ΔI = I0 – I, Ka is the Stern-Volmer constant for the accessible fraction and fa is the fraction of accessible fluorophore. […] As first approximation, the total concentration of quencher was used to check the quenching mechanism. […] As all systems presented high absorbance values in the measured range of wavelengths, no excess of quencher was used and, therefore, 1:1 species will be assumed for these interactions.

A-375 cells = test: Sulforhodamine B (SRB) cell viability assay; format: cell-based; settings: 72 h
Method: (§1) Copper compounds were tested, along with the free ligands and cisplatin as the positive control, for their cytotoxicity on both melanoma (A-375) and lung adenocarcinoma (A-549) cell lines in the concentration range 0.78–50 μM. Following 72 h of incubation, cell viability was measured via sulforhodamine B (SRB) assay (Supplementary Figure S25).
(§2) A-375 cells (ATCC, CRL-3222) were grown in Dulbecco’s Modified Eagle Medium with high glucose (Gibco #11965118) and A-549 (ATCC, CCL-185) cells were grown in Dulbecco’s Modified Eagle Medium F-12 (Gibco #11320033), supplemented with 10% FBS (Gibco, #10500064) and Penicillin-Streptomycin (10,000 U/mL, Gibco, #15140122). Cells were incubated at 37 °C, 5% CO2 incubator and subcultured every 3 days.
(§3) All the tested complexes were dissolved in DMSO (10 mM stock solution), and aliquots were stored at -20 °C, thawed on the experiment day and used only once. For SRB cell viability assay, A-375 and A-549 cells were seeded on 96-well plates (4×10^3 cells/well) and treated with serial dilutions of indicated compounds (with a concentration range of 0-50 μM, 72 h). Trichloroacetic acid (TCA) was added to wells for fixation at a final concentration of 10%, for 1 h at 4 °C. Each well was washed five times with ddH2O, dried, and incubated with 0.4% (w/v) SRB dye (50 µL/well) for 30 min at room temperature. The wells were washed with 1% acetic acid (v/v) five times, and 150 µL of 10 mM Tris solution was added to dissolve the stain. Colorimetric measurements were taken at λ = 564 nm. Viability percentage was calculated as follows: % Cell Viability = [100 × (sample Abs.-blank) / (non-treated control Abs.-blank)].

A-549 cells = test: Sulforhodamine B (SRB) cell viability assay; format: cell-based; settings: 72 h
Method: as §1, §2, §3

[2] = Thermodynamic solubility at pH 7.4; format: physicochemical; settings: Cu(II) complexes; pH 7.40; 20 mM HEPES; 25.0°C
Method: Thermodynamic solubility (S) was measured for the new ligands, L^7 and L^8, since data for the rest of the series was previously reported (9), and for selected Cu(II) complexes: 1, 5 and 6. Solubility was measured for the saturated solutions in water at pH 7.40 in 20 mM HEPES at 25.0 ± 0.1 °C. The concentration was determined by UV-Vis spectrophotometry using the stock solutions of the compounds with known concentrations dissolved in 100% DMSO, 50% and 25% (v/v) DMSO/buffered aqueous solutions for the calibration.

[3] = test system: Escherichia coli K-12 AG100; test: MIC determination; format: cell-based; settings: E. coli; 18 h
Method: (§4) Wild-type Escherichia coli K-12 AG100 strain [argE3 thi-1 rpsL xyl mtl Δ(gal-uvrB) supE44] expressing the AcrAB TolC efflux pump at its basal level and Klebsiella pneumoniae ATCC 49619 Gram-negative strains were studied in the experiments. Sensitive (ATCC 25928) and the methicillin-resistant (MRSA 272123) subspecies of Staphylococcus aureus were used as Gram-positive strains in the assays.
(§5) Minimum inhibitory concentration (MIC) values of selected compounds were determined in 96-well plates based on the Clinical and Laboratory Standard Institute guidelines (CLSI guidelines). The stock solutions of the compounds were dissolved in DMSO using 1.3 μL of Mueller Hinton Broth, and then two-fold serial dilutions were performed. The starting concentration of the compounds was 100 μM. Then 10^‒4 dilution of an overnight bacterial culture in 100 μL of medium was added to each well, except for the medium control wells.

[4] = test system: Klebsiella pneumoniae ATCC 49619; test: MIC determination; format: cell-based; settings: K. pneumoniae; 18 h
Method: as §4, §5

S. aureus ATCC 25928 = test: MIC determination; format: cell-based, Staphylococcus aureus; settings: S. aureus ATCC 25928 (sensitive); 18 h
Method: as §4, §5

S. aureus MRSA 272123 = test: MIC determination; format: cell-based, Staphylococcus aureus; settings: 18 h
Method: as §4, §5

[5] = Cu(II) complex formation and stability constants by UV-Vis spectrophotometric titrations; format: physicochemical; settings: physiological pH; 1 μM concentration
Method: The complex formation processes of L^1, L^5 and L^6 with Cu(II) ions were studied by UV-Vis spectrophotometry in 30% (v/v) DMSO/H2O using relatively low concentrations (c L = 50–60 μM), due to the limited water solubility of the ligand precursors as well as of the Cu(II) complexes (see thermodynamic solubility data in aqueous media in Table 2 and Table 3). L^1 was selected as the simplest compound of the studied ligand series, whereas L^5 and L^6 were selected to compare with the oxidovanadium(IV) system ([Ribeiro et al., 2022]). The solution stability and stoichiometry of the Cu(II) complexes were determined by the evaluation of the UV-Vis spectra recorded at various pH values (representative spectra are shown for the Cu(II) ‒ L^1 and Cu(II) ‒ L^6 systems in Figures 3A,B and for Cu(II) ‒ L^5 in Supplementary Figure S10A). The computed overall stability constants and pK a values of the complexes are collected in Table 3. The formation of only mono-ligand complexes was found with [Cu(LH)]^+, [Cu(L)], and [Cu(LH‒1)]^‒ (and [Cu(LH‒2)]^2‒ in the case of L^6) compositions, and their computed molar absorbance spectra are shown in Figures 3C, D, Supplementary Figure S10B.
An Agilent Cary 8454 diode array spectrophotometer was used to record the UV-Vis spectra in the range of 200–800 nm. Titrations were carried out with a Metrohm 665 Dosimat burette and an Orion 710A pH-meter equipped with a Metrohm combined electrode. A ionic strength of 0.10 M (KCl) was used to keep the activity coefficients constant. The titrations were performed with 0.10 M carbonate-free KOH solution in a 30% (v/v) DMSO/H2O solvent mixture. […] The average water ionization constant (pKw) is 14.53 ± 0.05 in the 30% (v/v) DMSO/H2O solvent mixture. The pKa values of the ligand precursors and the logβ values for the Cu(II) complexes were determined in 30% (v/v) DMSO/H2O in the same way as it was done in our previous publications (9, 11).
Spectrophotometric titrations were carried out on samples containing the ligands at 50 μM concentration, in the pH range from 2.0 to 11.5 in the absence or the presence of 1, 0.5 or 0.25 equiv. Cu(II) ions, using 10 cm^3 sample volumes. Proton dissociation constants (pKa) of the ligand precursors as well as stoichiometry and stability constants of the Cu(II) complexes (β) were calculated by the computer program PSEQUAD (12). The usual definition of overall (β) and stepwise (K) formation constants is used: […]

bovine serum albumin (BSA), sequence (P02769 25-607): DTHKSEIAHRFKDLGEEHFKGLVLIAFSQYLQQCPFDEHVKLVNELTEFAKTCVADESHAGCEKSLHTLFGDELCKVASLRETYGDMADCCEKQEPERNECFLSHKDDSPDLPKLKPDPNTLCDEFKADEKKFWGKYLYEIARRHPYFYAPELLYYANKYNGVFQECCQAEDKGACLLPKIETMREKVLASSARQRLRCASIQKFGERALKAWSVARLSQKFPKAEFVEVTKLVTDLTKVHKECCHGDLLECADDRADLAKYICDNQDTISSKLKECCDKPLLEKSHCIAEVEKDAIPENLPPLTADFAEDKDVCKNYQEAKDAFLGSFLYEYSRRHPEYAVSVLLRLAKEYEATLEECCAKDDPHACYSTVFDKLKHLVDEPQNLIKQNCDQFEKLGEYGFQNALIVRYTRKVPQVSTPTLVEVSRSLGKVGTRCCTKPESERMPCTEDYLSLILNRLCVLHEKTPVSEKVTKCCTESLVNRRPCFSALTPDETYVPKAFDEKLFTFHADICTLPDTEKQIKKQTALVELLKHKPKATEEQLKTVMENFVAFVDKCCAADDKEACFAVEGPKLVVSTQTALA

| SMILES | Affinity constant K ± SD [1] | IC50 (A-375 cells) | IC50 (A-549 cells) | thermodynamic solubility S 7.4 [2] | MIC [3] | MIC [4] | MIC (S. aureus ATCC 25928) | MIC (S. aureus MRSA 272123) | level of dissociation of the complex [5] |
| --- | --- | --- | --- | --- | --- | --- | --- | --- | --- |
| O=C([N-]N=Cc1ccc2cccc([O-])c2n1)c1ccc(Cl)cc1.O=C([N-]N=Cc1ccc2cccc([O-])c2n1)c1ccc(Cl)cc1.O=C([N-]N=Cc1ccc2cccc([O-])c2n1)c1ccc(Cl)cc1.[Cu+2].[Cu+2].[Cu+2] [Complex 2, [Cu(L^2)]3] | (8.3 ± 0.1) × 10^4 | 6.5 ± 0.8 µM | 9.3 ± 0.4 µM | < 1 µM | – | – | – | – | – |
| N.N.[Cl][Pt][Cl] [cisplatin, reference compound] | – | 11.2 ± 0.3 µM | 16.5 ± 3.4 µM | – | – | – | – | – | – |
| [Cl][Cu][Cl] [CuCl2, reference compound] | – | – | – | – | > 100 µM | > 100 µM | > 100 µM | > 100 µM | – |
| O=C([N-]N=Cc1ccc2cccc([O-])c2n1)c1ccc(O)cc1.O=C([N-]N=Cc1ccc2cccc([O-])c2n1)c1ccc(O)cc1.O=C([N-]N=Cc1ccc2cccc([O-])c2n1)c1ccc(O)cc1.[Cu+2].[Cu+2].[Cu+2] [Complex 6, [Cu(L^6)]3] | (2.7 ± 0.8) × 10^5 | 13.6 ± 0.9 µM | 16 ± 0.3 µM | – | > 100 µM | > 100 µM | > 100 µM | > 100 µM | ca. 5% |
| CC(=O)[O-].Cc1ccc(C(=O)NN=Cc2ccc3cccc([O-])c3n2)cc1.[Cu+2] [Complex 4, [Cu(HL^4)(AcO)]] | (3.2 ± 1.0) × 10^6 | 2 ± 1.3 µM | 3.9 ± 0.6 µM | 4.0 ± 0.2 µM | – | – | – | – | – |
